# Assay results published in ChEMBL document CHEMBL4354833, “Kinetic Target-Guided Synthesis: Reaching the Age of Maturity” (J Med Chem, 2020).
# Columns and labels:
# Bacterial 70S ribosome = assay: Binding affinity to Escherichia coli 70S ribosome assessed as reduction in BODIPY-Erythromycin A binding incubated for 1 hr by fluorescence polarization assay; format: subcellular
# [1] = molecular target: Bacterial 70S ribosome (Bacteria) (UniProt P0A7V0+P60723+P0AG67+P0A7R5+P0A7R9+P0A7S3+P0A7S9+P0AG59+P0ADZ4+P0A7T3+P0AG63+P0A7T7+P0A7U3+P0A7U7+P68679+P0A7V3+P0A7V8+P0A7W1+P02358+P02359+P0A7W7+P0A7X3+P0A7J3+P0A7J7+P0AA10+P0ADY3+P02413+P0ADY7+P0AG44+P0C018+P0A7K6+P0A7L0+P0A7L3+P0AG48+P61175+P0ADZ0+P60624+P68919+P0A7L8+P0A7M2+P0A7M6+P60422+P0AG51+P0A7N1+P0A7M9+P0A7N4+P0A7N9+P0A7P5+P0A7Q1+Q2EEQ2+P0A7Q6+P60438+P62399+P0AG55+P0A7K2); assay: Inhibition of 70S ribosome in Escherichia coli cell free system assessed as reduction in protein synthesis by measuring EmGFP synthesis at 1 uM by cell-free translation inhibition method relative to control; format: subcellular
# Streptococcus pneumoniae = assay: Antimicrobial activity against Streptococcus pneumoniae ATCC 49619; format: functional
# Coagulation factor X = Coagulation factor X (Homo sapiens, UniProt P00742); assay: Inhibition human FA10a using Boc-LeuGly-Arg-AMC fluorogenic substrate
# Chain of Coagulation factor X (P00742 41-179 limits assumed): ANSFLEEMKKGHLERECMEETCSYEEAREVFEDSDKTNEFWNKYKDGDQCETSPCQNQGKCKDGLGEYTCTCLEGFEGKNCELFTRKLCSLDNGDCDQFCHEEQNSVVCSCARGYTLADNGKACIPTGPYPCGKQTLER
# Chain of Coagulation factor X (P00742 235-488 limits assumed): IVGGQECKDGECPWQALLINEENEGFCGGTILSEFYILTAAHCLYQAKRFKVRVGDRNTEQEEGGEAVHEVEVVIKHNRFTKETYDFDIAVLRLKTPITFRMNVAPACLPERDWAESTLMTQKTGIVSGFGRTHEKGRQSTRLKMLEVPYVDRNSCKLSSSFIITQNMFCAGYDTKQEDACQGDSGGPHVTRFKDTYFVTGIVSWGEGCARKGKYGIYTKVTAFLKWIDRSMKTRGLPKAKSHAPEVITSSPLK
# [2] = molecular target: T1, Signal transducer and activator of transcription 5B (Homo sapiens, UniProt P51692); assay: Binding affinity to MBP-tagged recombinant STAT5b-SH2 domain (unknown origin) using carboxyfluoresceine-labeled phosphotyrosine octapeptide incubated for 12 hrs by fluorescence polarization assay
# T1 sequence (P51692 whole entry): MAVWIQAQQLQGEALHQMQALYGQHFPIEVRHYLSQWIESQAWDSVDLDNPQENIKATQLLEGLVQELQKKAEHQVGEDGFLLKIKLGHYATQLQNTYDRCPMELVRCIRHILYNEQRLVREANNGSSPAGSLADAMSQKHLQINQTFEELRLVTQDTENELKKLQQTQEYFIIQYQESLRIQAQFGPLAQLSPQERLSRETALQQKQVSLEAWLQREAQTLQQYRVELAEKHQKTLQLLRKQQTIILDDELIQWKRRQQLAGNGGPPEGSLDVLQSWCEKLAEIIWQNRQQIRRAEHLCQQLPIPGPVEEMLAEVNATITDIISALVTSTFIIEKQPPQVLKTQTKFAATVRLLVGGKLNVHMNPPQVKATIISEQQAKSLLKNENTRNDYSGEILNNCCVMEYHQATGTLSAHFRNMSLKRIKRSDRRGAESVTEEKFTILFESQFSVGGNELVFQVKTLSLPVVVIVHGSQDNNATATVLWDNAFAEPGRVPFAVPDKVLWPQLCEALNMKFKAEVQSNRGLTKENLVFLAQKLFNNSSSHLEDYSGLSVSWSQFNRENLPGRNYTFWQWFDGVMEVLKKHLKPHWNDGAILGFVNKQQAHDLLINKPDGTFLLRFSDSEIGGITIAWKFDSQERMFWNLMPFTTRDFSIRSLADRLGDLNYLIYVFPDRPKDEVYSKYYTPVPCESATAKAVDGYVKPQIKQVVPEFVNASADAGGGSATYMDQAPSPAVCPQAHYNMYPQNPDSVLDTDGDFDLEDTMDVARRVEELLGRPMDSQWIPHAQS
# Prothrombin = Prothrombin (Homo sapiens, UniProt P00734); assay: Inhibition of thrombin (unknown origin)
# [3] = molecular target: Luciferin 4-monooxygenase (Photinus pyralis, UniProt P08659); assay: Inhibition of Photinus pyralis luciferase using ATP and D-luciferin in presence of Coenzyme A and DL-cysteine by luminescence based assay
# Chain of Luciferin 4-monooxygenase (P08659 whole entry): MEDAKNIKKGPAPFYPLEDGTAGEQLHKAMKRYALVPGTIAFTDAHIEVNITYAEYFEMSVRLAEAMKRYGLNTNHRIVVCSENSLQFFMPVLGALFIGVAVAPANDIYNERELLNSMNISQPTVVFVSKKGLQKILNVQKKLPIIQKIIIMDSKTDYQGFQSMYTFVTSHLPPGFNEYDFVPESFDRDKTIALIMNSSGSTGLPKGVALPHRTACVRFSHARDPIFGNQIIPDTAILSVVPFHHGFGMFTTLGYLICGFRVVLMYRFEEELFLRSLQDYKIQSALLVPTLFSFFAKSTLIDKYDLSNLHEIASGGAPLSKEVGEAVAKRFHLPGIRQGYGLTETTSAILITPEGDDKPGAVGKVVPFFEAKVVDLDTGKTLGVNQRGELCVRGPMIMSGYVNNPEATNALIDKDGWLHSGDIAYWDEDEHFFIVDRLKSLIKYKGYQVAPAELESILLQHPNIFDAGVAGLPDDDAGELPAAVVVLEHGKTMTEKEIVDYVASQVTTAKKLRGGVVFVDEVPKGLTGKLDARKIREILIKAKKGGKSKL
# Carbonic anhydrase 2 = Carbonic anhydrase 2 (Bos taurus, UniProt P00921); assay: Binding affinity to bovine carbonic anhydrase 2
# Chain of Carbonic anhydrase 2 (P00921 whole entry): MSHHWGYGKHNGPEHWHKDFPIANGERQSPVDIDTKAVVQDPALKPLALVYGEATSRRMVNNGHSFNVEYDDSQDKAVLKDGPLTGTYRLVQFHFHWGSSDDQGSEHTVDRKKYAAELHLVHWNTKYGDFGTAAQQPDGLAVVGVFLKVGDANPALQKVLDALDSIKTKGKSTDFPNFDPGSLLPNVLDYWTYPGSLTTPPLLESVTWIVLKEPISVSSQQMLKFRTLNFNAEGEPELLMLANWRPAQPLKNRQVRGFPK
# [4] = Biodistribution in RBC of SCID mouse measured after 10 mins; format: ADME, organism-based; conditions: erythrocyte
# [5] = Biodistribution in plasma of SCID mouse measured after 10 mins; format: ADME, organism-based; conditions: in vivo
# [6] = molecular target: T2, Signal transducer and activator of transcription 5B (Mus musculus) (UniProt P42232); assay: Inhibition of STAT5b phosphorylation in mouse BaF3/FLT3-ITD cells at 25 uM after 6 hrs by Western blot analysis relative to control; format: cell-based
# T2 sequence (whole entry): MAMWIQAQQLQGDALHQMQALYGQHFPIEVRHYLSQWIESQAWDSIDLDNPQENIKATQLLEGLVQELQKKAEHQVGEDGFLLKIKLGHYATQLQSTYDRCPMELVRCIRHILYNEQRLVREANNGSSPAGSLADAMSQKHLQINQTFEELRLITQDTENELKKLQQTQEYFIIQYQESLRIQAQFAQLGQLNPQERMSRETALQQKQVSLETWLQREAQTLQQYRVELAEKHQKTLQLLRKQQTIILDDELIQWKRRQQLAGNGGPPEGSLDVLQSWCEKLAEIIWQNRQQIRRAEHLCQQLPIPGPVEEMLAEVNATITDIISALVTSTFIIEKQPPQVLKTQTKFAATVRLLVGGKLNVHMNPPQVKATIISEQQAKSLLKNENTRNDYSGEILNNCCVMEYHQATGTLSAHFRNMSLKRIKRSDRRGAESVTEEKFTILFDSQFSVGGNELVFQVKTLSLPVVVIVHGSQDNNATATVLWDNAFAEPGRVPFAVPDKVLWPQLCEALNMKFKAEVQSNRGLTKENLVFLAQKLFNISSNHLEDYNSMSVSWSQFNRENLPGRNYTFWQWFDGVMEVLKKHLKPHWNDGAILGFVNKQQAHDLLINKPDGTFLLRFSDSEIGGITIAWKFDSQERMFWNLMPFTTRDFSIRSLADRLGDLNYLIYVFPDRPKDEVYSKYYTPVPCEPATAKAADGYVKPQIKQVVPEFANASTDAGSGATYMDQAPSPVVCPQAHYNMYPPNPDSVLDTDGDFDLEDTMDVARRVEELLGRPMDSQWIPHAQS
# [7] = Antitumor activity against mouse BaF3/FLT3-ITD cells implanted in NSG mouse assessed as induction of tumor growth regression at 200 mg/kg, sc QD for 14 days relative to control; format: functional
# Rattus norvegicus = species on record: Rattus norvegicus; assay: animal or person; conditions: 3 h
# Description: Antiinflammatory activity in rat model of carrageenan-induced paw edema model after 3 hrs
# [8] = Inhibition of Enterovirus A71 3c protease
# [9] = molecular target: T3, Bifunctional ligase/repressor BirA (Staphylococcus aureus, UniProt A0A0E7NXW5); assay: Binding affinity to Staphylococcus aureus biotin protein ligase
# T3 sequence (A0A0E7NXW5 whole entry): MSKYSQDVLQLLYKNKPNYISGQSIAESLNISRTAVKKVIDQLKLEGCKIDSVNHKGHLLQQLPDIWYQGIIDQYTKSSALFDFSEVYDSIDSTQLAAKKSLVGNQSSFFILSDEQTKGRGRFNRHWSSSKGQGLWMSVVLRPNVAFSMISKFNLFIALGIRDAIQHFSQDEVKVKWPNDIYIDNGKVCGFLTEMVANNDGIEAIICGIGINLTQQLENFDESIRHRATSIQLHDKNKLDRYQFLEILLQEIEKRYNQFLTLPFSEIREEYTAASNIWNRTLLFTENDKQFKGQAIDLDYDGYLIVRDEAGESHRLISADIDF
# NAD kinase 1 = molecular target: T4, NAD kinase 1 (Listeria monocytogenes serovar 1/2a (strain ATCC BAA-679 / EGD-e), UniProt Q8Y8D7); assay: Inhibition of Listeria monocytogenes NAD kinase assessed as suppression of reduced NADP formation by yeast glucose-6-phosphate dehydrogenase coupled assay
# T4 sequence (Q8Y8D7 whole entry): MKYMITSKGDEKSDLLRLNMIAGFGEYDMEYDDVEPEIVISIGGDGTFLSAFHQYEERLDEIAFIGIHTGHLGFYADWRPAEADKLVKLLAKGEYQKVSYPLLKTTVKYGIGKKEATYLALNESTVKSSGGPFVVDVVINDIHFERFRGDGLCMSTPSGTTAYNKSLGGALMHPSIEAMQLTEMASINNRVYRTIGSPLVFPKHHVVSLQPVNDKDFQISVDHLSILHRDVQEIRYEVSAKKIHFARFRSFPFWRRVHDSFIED
# [10] = molecular target: T5, Signal transducer and activator of transcription 5B (Homo sapiens) (UniProt P51692); assay: Binding affinity to MBP-tagged recombinant STAT5b-SH2 domain (unknown origin) assessed as change in melting temperature by CETSA method
# T5 sequence (whole entry): T1 sequence (P51692 whole entry)
# [11] = molecular target: T2, Signal transducer and activator of transcription 5B (Mus musculus); assay: Inhibition of STAT5b in mouse BaF3/FLT3-ITD cells incubated for 6 hrs by CETSA-ITDRF assay; format: cell-based
smiles,measurement,setting,value
CC[C@H]1OC(=O)[C@@](C)(F)C(=O)[C@H](C)[C@@H](O[C@@H]2O[C@H](C)C[C@H](N(C)C)[C@H]2O)[C@](C)(OC)C[C@@H](C)C(=O)[C@H](C)[C@H]2N(CCCCn3cc(-c4cccc(N)c4)nn3)C(=O)O[C@]12C [SOLITHROMYCIN],Kd,Bacterial 70S ribosome,0.6 nM
same,inhibition,[1],47%
same,MIC,Streptococcus pneumoniae,6 ng/mL
N=C(N)c1ccc(CN)cc1,Ki,Coagulation factor X,680 µM
COC(=O)c1nonc1NCn1cnnn1,IC50,[2],37000 nM
N=C(N)c1ccc(NC(C(=O)NCc2ccccc2)c2ccccc2)cc1 (centres undefined),Ki,Prothrombin,50 nM
O=C(O)c1nonc1NCn1nnc2ccccc21,Ki,[2],> 5 mM
Nc1ncnc2c1ncn2[C@H]1O[C@@H](COP(=O)(O)OC(=O)c2cccc(-c3noc(-c4ccccc4F)n3)c2)[C@H](O)[C@@H]1O,IC50,[3],10 nM
O=C(O)c1nonc1NCn1nnnc1-c1ccccc1,Ki,[2],> 5 mM
O=C(O)c1nonc1NCn1cncn1,Ki,[2],> 5 mM
CC(C)[C@H](C(=O)NCc1cc([18F])ccn1)n1cc(-c2ccc(S(N)(=O)=O)cc2)nn1,Kd,Carbonic anhydrase 2,0.5 nM
same,Drug uptake,[4],90%
same,Drug uptake,[5],10%
O=C(O)c1nonc1NCn1nnnc1Cc1ccccc1,IC50,[2],2900 nM
same,inhibition,[6],> 50%
same,Activity,[7],28%
CC[C@H]1OC(=O)[C@@](C)(F)C(=O)[C@H](C)[C@@H](O[C@@H]2O[C@H](C)C[C@H](N(C)C)[C@H]2O)[C@](C)(OC)C[C@@H](C)C(=O)[C@H](C)[C@H]2N(CCCCn3cc(-c4cccc(N(C)C)c4)nn3)C(=O)O[C@]12C,Kd,Bacterial 70S ribosome,1.4 nM
same,inhibition,[1],37%
same,MIC,Streptococcus pneumoniae,5 ng/mL
Nc1nonc1C(=O)O,Ki,[2],0.42 mM
Cc1cc(-n2cc(-c3ccc(N)cc3)nn2)n(-c2ccc(S(C)(=O)=O)cc2)n1,ED50,Rattus norvegicus,0.12 mg/kg
Cc1cc(-n2cc(-c3ccc(F)cc3)nn2)n(-c2ccc(S(C)(=O)=O)cc2)n1,ED50,Rattus norvegicus,0.44 mg/kg
O=C[C@H](C[C@@H]1CCCNC1=O)NC(=O)[C@H](Cc1ccccc1)NC(=O)C(O)CC(=O)c1ccncc1 (some centres undefined),IC50,[8],150 nM
CCOC(=O)/C=C/[C@H](C[C@@H]1CCCNC1=O)NC(=O)[C@H](Cc1ccccc1)NC(=O)C=O,IC50,[8],16400 nM
CC[C@H]1OC(=O)[C@@](C)(F)C(=O)[C@H](C)[C@@H](O[C@@H]2O[C@H](C)C[C@H](N(C)C)[C@H]2O)[C@](C)(OC)C[C@@H](C)C(=O)[C@H](C)[C@H]2N(CCCCN=[N+]=[N-])C(=O)O[C@]12C,Kd,Bacterial 70S ribosome,2.1 nM
same,MIC,Streptococcus pneumoniae,2 ng/mL
O=C(O)c1nonc1NCn1nnnc1-c1ccc(F)cc1,Ki,[2],0.0006 mM
O=C1N[C@H]2[C@H](CS[C@H]2CCCCc2cn(CCCNc3ccc([N+](=O)[O-])c4nonc34)nn2)N1,Ki,[9],1400 nM
[N-]=[N+]=NC[C@H]1O[C@@H](n2c(SCC(=O)NC[C@H]3O[C@@H](n4cnc5c(N)ncnc54)[C@H](O)[C@@H]3O)nc3c(N)ncnc32)[C@H](O)[C@@H]1O,Ki,NAD kinase 1,25 µM
O=C(O)c1nonc1NCn1nnnc1-c1cccc(F)c1,Ki,[2],> 5 mM
O=C(O)c1nonc1NCn1cccn1,Ki,[2],> 5 mM
Cc1cc(C(=O)N[C@@H](Cc2ccc(F)cc2)C(=O)N[C@H](C=O)C[C@@H]2CCCNC2=O)no1,IC50,[8],320 nM
CCOC(=O)CC[C@H](C[C@@H]1CCCNC1=O)NC(=O)[C@H](Cc1ccccc1)NC(=O)C(O)CC(=O)c1ccncc1 (some centres undefined),IC50,[8],1430 nM
O=C(O)c1nonc1NCn1ccnn1,Ki,[2],> 5 mM
O=C(O)c1nonc1NCn1nnnc1-c1cccc(C(F)(F)F)c1,Ki,[2],> 5 mM
COC(=O)c1nonc1NCn1nnnc1-c1cccc(OC(F)(F)F)c1,Ki,[2],> 5 mM
O=C(O)c1nonc1NCn1cnnn1,IC50,[2],1400 nM
same,ΔTm,[10],8 °C
same,Occ50,[11],28 µM
